Source: US20230382925A1, “MODULATORS OF CYSTIC FIBROSIS TRANSMEMBRANE CONDUCTANCE REGULATOR” (VERTEX PHARMACEUTICALS INCORPORATED, priority 2020, published 2023)
Like-named read-outs stand apart in the source and are kept apart here.

Target: CFTR (Homo sapiens, UniProt P13569)
Assay: Membrane Potential Dye, Enteroid Assay B
Assay type: cell-based
Procedure: Base medium (ADF+++) consisted of Advanced […], 2 mM Glutamax, 10 mM HEPES, 1 μg/mL penicillin/streptomycin.
Intestinal enteroid maintenance medium (IEMMN) consisted of ADF+++, 1× B27 supplement, 1× N2 supplement, 1.25 mM N-acetyl cysteine, 10 mM Nicotinamide, 50 ng/mL hEGF, 10 nM Gastrin, 1 μg/mL hR-spondin-1, 100 ng/mL hNoggin, TGF-b type 1 inhibitor A-83-01, 100 μg/mL Primocin, 10 μM P38 MAPK inhibitor SB202190.
Bath 1 Buffer consisted of 1 mM MgCl2, 160 mM NaCl, 4.5 mM KCl, 10 mM HEPES, 10 mM Glucose, 2 mM CaCl2).
Chloride Free Buffer consisted of 1 mM Magnesium Gluconate, 2 mM Calcium Gluconate, 4.5 mM Potassium Gluconate, 160 mM Sodium Gluconate, 10 mM HEPES, 10 mM Glucose.
Bath 1 Dye Solution consisted of Bath 1 Buffer, 0.04% Pluronic F127, 20 μM Methyl Oxonol, 30 μM CaCCinh-A01, 30 μM Chicago Sky Blue.
Chloride Free Dye Solution consisted of Chloride Free Buffer, 0.04% Pluronic F127, 20 μM Methyl Oxonol, 30 μM CaCCinh-A01, 30 μM Chicago Sky Blue.
Chloride Free Dye Stimulation Solution consisted of Chloride Free Dye Solution, 10 μM forskolin, 100 μM IBMX, and 300 nM Compound III.
Human intestinal epithelial enteroid cells were obtained from the Hubrecht Institute for Developmental Biology and Stem Cell Research, Utrecht, The Netherlands and expanded in T-Flasks as previously described (Dekkers J F, Wiegerinck C L, de Jonge H R, Bronsveld I, Janssens H M, de Winter-de Groot K M, Brandsma A M, de Jong N W M, Bijvelds M J C, Scholte B J, Nieuwenhuis E E S, van den Brink S, Clevers H, van der Ent C K, Middendorp S and M Beekman J M. A functional CFTR assay using primary cystic fibrosis intestinal organoids. Nat Med. 2013 July; 19(7):939-45.).
3. Enteroid Cell Harvesting and Seeding
Cells were recovered in cell recovery solution, collected by centrifugation at 650 rpm for 5 min at 4° C., resuspended in TrypLE and incubated for 5 min at 37° C. Cells were then collected by centrifugation at 650 rpm for 5 min at 4° C. and resuspended in IEMM containing 10 μM ROCK inhibitor (RI). The cell suspension was passed through a 40 μm cell strainer and resuspended at 1×10^6 cells/mL in IEMM containing 10 μM RI. Cells were seeded at 5000 cells/well into multi-well plates and incubated for overnight at 37° C., 95% humidity and 5% CO2 prior to assay.
5. Membrane Potential Dye, Enteroid Assay B
Enteroid cells were incubated with test compound in IEMM for 18-24 hours at 37° C., 95% humidity and 5% CO2. […] Briefly, cells were washed 5 times in Bath 1 Buffer. Bath 1 Dye Solution was added and the cells were incubated for 25 min at room temperature. Following dye incubation, cells were washed 3 times in Chloride Free Dye Solution. Chloride transport was initiated by addition of Chloride Free Dye Stimulation Solution and the fluorescence signal was read for 15 min. […] Chloride transport was then expressed as a percentage of the chloride transport following treatment with 1 μM (14S)-8-[3-(2-{Dispiro[2.0.2.1]heptan-7-yl}ethoxy)-1H-pyrazol-1-yl]-12,12-dimethyl-2λ^6-thia-3,9,11,18,23-pentaazatetracyclo[17.3.1.111,14.05,10]tetracosa-1(22),5,7,9,19(23),20-hexaene-2,2,4-trione, 3 μM (R)-1-(2,2-difluorobenzo[d][1,3]dioxol-5-yl)-N-(1-(2,3-dihydroxypropyl)-6-fluoro-2-(1-hydroxy-2-methylpropan-2-yl)-1H-indol-5-yl)cyclopropanecarboxamide and 300 nM acute N-[2,4-bis(1,1-dimethylethyl)-5-hydroxyphenyl]-1,4-dihydro-4-oxoquinoline-3-carboxamide triple combination control (% Activity).

[1] = Table 10, read-out: Ent. B EC50

CFTR, sequence (P13569 with tags, fused parts or gaps DEL508-508): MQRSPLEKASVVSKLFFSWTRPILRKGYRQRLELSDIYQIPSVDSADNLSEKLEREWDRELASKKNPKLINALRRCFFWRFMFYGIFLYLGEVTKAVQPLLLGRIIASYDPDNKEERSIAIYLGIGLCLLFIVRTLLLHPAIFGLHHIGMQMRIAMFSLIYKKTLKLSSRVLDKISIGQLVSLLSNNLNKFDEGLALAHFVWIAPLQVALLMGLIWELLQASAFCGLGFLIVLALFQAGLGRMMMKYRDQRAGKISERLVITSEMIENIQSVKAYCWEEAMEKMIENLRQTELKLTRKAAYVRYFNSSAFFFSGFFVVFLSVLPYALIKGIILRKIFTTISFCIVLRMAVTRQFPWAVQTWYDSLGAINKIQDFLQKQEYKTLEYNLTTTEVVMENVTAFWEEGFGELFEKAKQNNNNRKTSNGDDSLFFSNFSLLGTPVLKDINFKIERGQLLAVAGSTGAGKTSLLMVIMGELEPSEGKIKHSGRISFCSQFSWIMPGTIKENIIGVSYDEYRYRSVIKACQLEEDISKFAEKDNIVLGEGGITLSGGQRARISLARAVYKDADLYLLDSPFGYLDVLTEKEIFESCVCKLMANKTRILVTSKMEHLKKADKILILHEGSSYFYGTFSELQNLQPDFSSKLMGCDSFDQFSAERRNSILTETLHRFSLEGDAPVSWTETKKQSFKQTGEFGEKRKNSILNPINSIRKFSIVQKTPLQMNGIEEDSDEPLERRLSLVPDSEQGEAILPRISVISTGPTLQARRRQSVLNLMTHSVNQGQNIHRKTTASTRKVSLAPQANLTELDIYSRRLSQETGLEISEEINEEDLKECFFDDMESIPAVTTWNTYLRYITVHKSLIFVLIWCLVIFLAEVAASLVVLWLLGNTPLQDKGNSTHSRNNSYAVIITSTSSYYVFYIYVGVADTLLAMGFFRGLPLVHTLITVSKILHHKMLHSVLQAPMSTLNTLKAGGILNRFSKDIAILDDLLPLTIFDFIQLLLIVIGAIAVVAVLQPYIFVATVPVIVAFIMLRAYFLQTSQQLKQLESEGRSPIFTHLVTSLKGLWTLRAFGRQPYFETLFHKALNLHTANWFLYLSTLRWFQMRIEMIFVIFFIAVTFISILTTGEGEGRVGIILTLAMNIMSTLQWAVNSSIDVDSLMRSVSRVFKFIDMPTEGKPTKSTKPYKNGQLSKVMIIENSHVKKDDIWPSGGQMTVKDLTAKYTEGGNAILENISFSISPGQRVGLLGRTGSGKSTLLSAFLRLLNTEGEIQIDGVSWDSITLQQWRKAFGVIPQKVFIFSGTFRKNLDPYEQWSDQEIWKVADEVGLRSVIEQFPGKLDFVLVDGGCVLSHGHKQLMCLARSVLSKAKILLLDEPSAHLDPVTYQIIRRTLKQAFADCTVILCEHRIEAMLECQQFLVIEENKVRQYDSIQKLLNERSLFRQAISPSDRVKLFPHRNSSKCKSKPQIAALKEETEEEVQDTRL

Structure (SMILES)	Ent. B Max Activity (%) (Table 10)	EC50 [1]	other results
CO[C@H]1C[C@@H](N2C(=O)c3cccc(c3)S(=O)(=O)Nc3nc(cc(-c4c(C)cccc4C)n3)OC[C@H]2CC(C)(C)C)C1 (single isomer, unassigned) [Compound 151]			Ent. B Max Activity (%): +++ (+++ is >60%); EC50 (read-out: Ent. B EC50): < 1000 nM
Cc1cccc(C)c1-c1cc2nc(n1)NS(=O)(=O)c1cccc(c1)C(=O)N([C@H]1C[C@@H](CC(C)(C)O)C1)[C@H](CC(C)(C)C)CO2 (single isomer, unassigned) [Compound 152]	+++ (+++ is >60%)	< 1000 nM	
Cc1cccc(C)c1-c1cc2nc(n1)NS(=O)(=O)c1cccc(c1)C(=O)N([C@H]1C[C@@H](CC(C)(C)O)C1)[C@H](CC(C)(C)C)CO2 (single isomer, unassigned) [Compound 153]	+++ (+++ is >60%)	< 1000 nM	
CC(=O)NCC[C@H]1C[C@@H](N2C(=O)c3cccc(c3)S(=O)(=O)Nc3nc(cc(-c4c(C)cccc4C)n3)OC[C@H]2CC(C)(C)C)C1 (single isomer, unassigned) [Compound 154]	+++ (+++ is >60%)	< 1000 nM	
CC(=O)NCC[C@H]1C[C@@H](N2C(=O)c3cccc(c3)S(=O)(=O)Nc3nc(cc(-c4c(C)cccc4C)n3)OC[C@H]2CC(C)(C)C)C1 (single isomer, unassigned) [Compound 155]	+++ (+++ is >60%)	< 1000 nM	
Cc1cccc(C)c1-c1cc2nc(n1)NS(=O)(=O)c1cccc(c1)C(=O)N([C@H]1C[C@@](C)(OC(F)(F)F)C1)[C@H](CC(C)(C)C)CO2 (single isomer, unassigned) [Compound 156]	++ (++ is 30-60%)	< 1000 nM	
Cc1cccc(C)c1-c1cc2nc(n1)NS(=O)(=O)c1cccc(c1)C(=O)N(C1CC(C)(OC(F)(F)F)C1)[C@H](CC(C)(C)C)CO2 (single isomer, unassigned) [Compound 157]	++ (++ is 30-60%)	< 1000 nM	
Cc1cccc(C)c1-c1cc2nc(n1)NS(=O)(=O)c1cccc(c1)C(=O)N(C1CC(CO)(C(C)(C)O)C1)[C@H](CC(C)(C)C)CO2 (single isomer, unassigned) [Compound 159]	+++ (+++ is >60%)	< 1000 nM	
Cc1cccc(C)c1-c1cc2nc(n1)NS(=O)(=O)c1cccc(c1)C(=O)N(C1CC(CO)(C(C)(C)O)C1)[C@H](CC(C)(C)C)CO2 (single isomer, unassigned) [Compound 160]	+++ (+++ is >60%)	< 1000 nM	
Cc1cccc(C)c1-c1cc2nc(n1)NS(=O)(=O)c1cccc(n1)C(=O)N(C1CC3(C1)CC(C(C)(C)O)C3)[C@H](CC(C)(C)C)CO2 (single isomer, unassigned) [Compound 161]	+++ (+++ is >60%)	< 1000 nM	
Cc1cccc(C)c1-c1cc2nc(n1)NS(=O)(=O)c1cccc(n1)C(=O)N(C1CC3(C1)CC(C(C)(C)O)C3)[C@H](CC(C)(C)C)CO2 (single isomer, unassigned) [Compound 162]	+++ (+++ is >60%)	< 1000 nM	
Cc1cccc(C)c1-c1cc2nc(n1)NS(=O)(=O)c1cccc(c1)C(=O)N(C1CC(N)C1)[C@H](CC(C)(C)C)CO2 (single isomer, unassigned) [Compound 165]	++ (++ is 30-60%)	< 1000 nM	
Cc1cccc(C)c1-c1cc2nc(n1)NS(=O)(=O)c1cccc(c1)C(=O)N(C1CC(N)C1)[C@H](CC(C)(C)C)CO2 (single isomer, unassigned) [Compound 166]	++ (++ is 30-60%)	< 1000 nM	
Cc1cccc(C)c1-c1cc2nc(n1)NS(=O)(=O)c1cccc(c1)C(=O)N([C@H]1C[C@@H](N3CCOC3=O)C1)[C@H](CC(C)(C)C)CO2 (single isomer, unassigned) [Compound 167]	++ (++ is 30-60%)	< 1000 nM	
COC(=O)N[C@H]1C[C@@H](N2C(=O)c3cccc(c3)S(=O)(=O)Nc3nc(cc(-c4c(C)cccc4C)n3)OC[C@H]2CC(C)(C)C)C1 (single isomer, unassigned) [Compound 168]			Ent. B Max Activity (%) (Table 9): +++ (+++ is >60%); EC50 (Table 9, read-out: Ent. B EC50): < 1000 nM
COC(=O)N(C)C1CC(N2C(=O)c3cccc(c3)S(=O)(=O)Nc3nc(cc(-c4c(C)cccc4C)n3)OC[C@H]2CC(C)(C)C)C1 (single isomer, unassigned) [Compound 169]	+++ (+++ is >60%)	< 1000 nM	
COC(=O)N(C)C1CC(N2C(=O)c3cccc(c3)S(=O)(=O)Nc3nc(cc(-c4c(C)cccc4C)n3)OC[C@H]2CC(C)(C)C)C1 (single isomer, unassigned) [Compound 170]	++ (++ is 30-60%)		
COC(=O)NC1(C)CC(N2C(=O)c3cccc(c3)S(=O)(=O)Nc3nc(cc(-c4c(C)cccc4C)n3)OC[C@H]2CC(C)(C)C)C1 (single isomer, unassigned) [Compound 171]	+++ (+++ is >60%)	< 1000 nM	
COC(=O)NC1(C)CC(N2C(=O)c3cccc(c3)S(=O)(=O)Nc3nc(cc(-c4c(C)cccc4C)n3)OC[C@H]2CC(C)(C)C)C1 (single isomer, unassigned) [Compound 172]	+++ (+++ is >60%)	< 1000 nM	
COC(=O)N(C)[C@]1(C)C[C@H](N2C(=O)c3cccc(c3)S(=O)(=O)Nc3nc(cc(-c4c(C)cccc4C)n3)OC[C@H]2CC(C)(C)C)C1 (single isomer, unassigned) [Compound 173]	++ (++ is 30-60%)	< 1000 nM	
Cc1cccc(C)c1-c1cc2nc(n1)NS(=O)(=O)c1cccc(c1)C(=O)N(C1CC3(COC(=O)N3C)C1)[C@H](CC(C)(C)C)CO2 (single isomer, unassigned) [Compound 174]	++ (++ is 30-60%)	< 1000 nM	
Cc1cccc(C)c1-c1cc2nc(n1)NS(=O)(=O)c1cccc(c1)C(=O)N(C1CC3(COC(=O)N3)C1)[C@H](CC(C)(C)C)CO2 (single isomer, unassigned) [Compound 175]	++ (++ is 30-60%)	< 1000 nM	
Cc1cccc(C)c1-c1cc2nc(n1)NS(=O)(=O)c1cccc(c1)C(=O)N(C1CC3(COC(=O)N3)C1)[C@H](CC(C)(C)C)CO2 (single isomer, unassigned) [Compound 176]	++ (++ is 30-60%)	< 1000 nM	
Cc1cccc(C)c1-c1cc2nc(n1)NS(=O)(=O)c1cccc(c1)C(=O)N(C1CC3(COC(=O)N3C)C1)[C@H](CC(C)(C)C)CO2 (single isomer, unassigned) [Compound 177]	++ (++ is 30-60%)	< 1000 nM	
Cc1cccc(C)c1-c1cc2nc(n1)NS(=O)(=O)c1cccc(c1)C(=O)N(C1CC(NC(=O)OC(C)C)C1)[C@H](CC(C)(C)C(F)(F)F)CO2 (single isomer, unassigned) [Compound 192]	+++ (+++ is >60%)	< 1000 nM	
Cc1cccc(C)c1-c1cc2nc(n1)NS(=O)(=O)c1cccc(c1)C(=O)N(C1CC(NC(=O)OC(C)(C)C)C1)[C@H](CC(C)(C)C(F)(F)F)CO2 (single isomer, unassigned) [Compound 193]			Ent. B Max Activity (%) (Table 9): +++ (+++ is >60%); EC50 (Table 9, read-out: Ent. B EC50): < 1000 nM
Cc1cccc(C)c1-c1cc2nc(n1)NS(=O)(=O)c1cccc(c1)C(=O)N(C1CC(NC(=O)OC(C)(C)C)C1)[C@H](CC(C)(C)C(F)(F)F)CO2 (single isomer, unassigned) [Compound 194]			Ent. B Max Activity (%) (Table 9): +++ (+++ is >60%); EC50 (Table 9, read-out: Ent. B EC50): < 1000 nM
